Assays:
[1] = Bread trial: plasma bioavailability of anthocyanins and phenolic metabolites; assay type: in vivo, human; conditions: for change in plasma concentration, mean difference between 60 and 120 min: 4-BB group
Method: Bioavailability analysis was performed in the Bread trial according to the methods by Kay, et al.[58]. […] The sample was drained off in a vacuum manifold and washed with 2 volumes of acidified water. The remaining ACN extract was eluted with 6 mL acidified methanol, and subsequently brought to dryness at 25 °C under a continuous stream of nitrogen gas. The residue was dissolved in 200 μL of 0.1% v/v formic acid and filtered through a 13 mm 0.22 μm PTFE hydrophilic syringe filter. The resulting solution was analyzed using a reverse-phased C18 Sunfire column (250 × 4.6 mm/5 μm; Waters, Wexford, Ireland) on an HPLC system (Shimadzu Prominence, Shimadzu, Kyoto, Japan) connected with a DAD. The injection volume was 50 μL. The flow rate and oven temperature were maintained at 1 mL/min at 25 °C. A gradient elution process was applied (mobile phase A: 5% v/v formic acid; mobile phase B: 100% acetonitrile): 0% B for 5 min, 10% B at 20 min, 13% B at 40 min, 20% B at 44 min, 25% B at 50 min, and 100% B at 55 min. Detection of ACNs was performed at 520 nm; while its metabolites, ferulic acid, vanillic acid, and protocatechuic acid were detected at 280 nm. Identification and quantification of each ACN and metabolite were based on matching the retention time and peak areas with the external calibration curve of respective standards.

[2] = parameters: method as in PMID 24602005, PMID 25347327; conditions: previous reports; cited from earlier work
α-amylase = biological target: T1, α-amylase (Sus scrofa, UniProt P00690); assay: In-vitro starch hydrolase inhibition (starch turbidity assay), α-amylase; assay type: biochemical, porcine; conditions: mean (SD)
T1 sequence (P00690 16-511): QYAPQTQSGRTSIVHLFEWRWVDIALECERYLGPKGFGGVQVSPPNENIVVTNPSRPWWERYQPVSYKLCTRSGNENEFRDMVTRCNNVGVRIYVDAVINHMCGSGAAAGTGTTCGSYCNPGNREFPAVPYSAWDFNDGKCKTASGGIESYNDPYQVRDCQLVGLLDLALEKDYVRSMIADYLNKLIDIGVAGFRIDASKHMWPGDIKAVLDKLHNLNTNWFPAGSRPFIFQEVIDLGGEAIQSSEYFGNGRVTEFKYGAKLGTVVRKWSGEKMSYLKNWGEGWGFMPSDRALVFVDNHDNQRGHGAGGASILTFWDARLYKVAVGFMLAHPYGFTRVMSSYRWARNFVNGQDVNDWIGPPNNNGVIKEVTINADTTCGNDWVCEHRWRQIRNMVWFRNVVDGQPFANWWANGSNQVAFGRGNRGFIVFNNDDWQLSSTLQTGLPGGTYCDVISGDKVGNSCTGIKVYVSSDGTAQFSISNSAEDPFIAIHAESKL
Method: (§1) To determine the inhibitor activities of major ACN species, 50 μL of enzyme solution was mixed with 50 μL of inhibitor solution of different concentrations and incubated for 15 min at 37 °C. The reaction was initiated by mixing 100 μL of 1% gelatinized wheat starch solution into the enzyme-inhibitor mixtures. Changes in turbidity were immediately monitored at 660 nm for 2 h in a microplate reader preincubated at 37 °C, with one reading per minute, while shaking in between readings to minimize starch sedimentation. Enzyme activities were inversely proportional to the AUC for turbidity readings. The percentage inhibition (%I) was defined as:7 %I=(AUCSample−AUCControl)/AUCSample×100 in which AUCSample is the area under the curve for the inhibitor, and AUCControl is the area under the curve without inhibitors.

α-glucosidase = assay: In-vitro starch hydrolase inhibition (starch turbidity assay), α-glucosidase; assay type: biochemical; conditions: mean (SD)
Method: as §1

Which “change in plasma concentration, mean difference between 60 and 120 min” value [1] does the source give for COc1cc(/C=C/C(=O)O)ccc1O [FA, ferulic acid] here?
The value was 1.08.

What about the “time of peak plasma concentrations” value [2] of the same compound?
Its value is 0.5 to 1 h.

For OC[C@H]1O[C@@H](Oc2cc3c(O)cc(O)cc3[o+]c2-c2ccc(O)c(O)c2)[C@H](O)[C@@H](O)[C@@H]1O [C3G, cyanidin-3-glucoside], which IC50 (α-amylase) is on record?
Its IC50 is 364 µM.

What about the IC50 (α-glucosidase) of the same compound?
The IC50 was 1120 µM.

Which IC50 (α-amylase) does the source give for COc1cc(-c2[o+]c3cc(O)cc(O)c3cc2O[C@@H]2O[C@H](CO)[C@@H](O)[C@H](O)[C@H]2O)ccc1O [P3G, peonidin-3-glucoside] here?
Its IC50 is 649 µM.

What about the IC50 (α-glucosidase) of the same compound?
Its IC50 is 1340 µM.

For O=C(O)c1ccc(O)c(O)c1 [PCA, protocatechuic acid], which “share of total polyphenols in plasma at 60 min peak concentrations” value ([1]; Bread trial) is on record?
The value was 93.9%.

And the “time of peak plasma concentrations” value [2]?
The value was 1 to 2 h.

What does the source list for C[C@@H]1O[C@@H](OC[C@H]2O[C@@H](Oc3cc4c(O)cc(O)cc4[o+]c3-c3ccc(O)c(O)c3)[C@H](O)[C@@H](O)[C@@H]2O)[C@H](O)[C@H](O)[C@H]1O [C3R, cyanidin-3-rutinoside]?
IC50 (α-amylase): 483 µM; IC50 (α-glucosidase): 904 µM

With COc1cc(C(=O)O)ccc1O [VA, vanillic acid] as the compound, how does the “change in plasma concentration, mean difference between 60 and 120 min” value [1] read?
The value was 0.439.

What about the “time of peak plasma concentrations” value [2] of the same compound?
The value was 0.5 to 1 h.

— publication PMC10620212, “Postprandial glycemic and lipidemic effects of black rice anthocyanin extract fortification in foods of varying macronutrient compositions and matrices” (NPJ Science of Food, 2023)
